In PubChem BioAssay AID248 (DTP/NCI, 2004):
Values joined by “and” are separate entries in the source; they are usually repeats but may differ in a detail not shown here. Equal values may be shown once. Toxic doses and inconclusive results are not listed. Cut-off read from the data, not from the text of the source: active = T/C of 150% or more; inactive = T/C below 125%.

Tested on: L1210 leukemia ip in BDF1 mice, survival T/C
Test: NCI In Vivo Anticancer Drug Screen. Data for tumor model L1210 Leukemia (intraperitoneal) in B6D2F1 (BDF1) mice
Conditions: endpoint: mean survival time, higher = longer survival
In short: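 Tumor was transplanted into mice, which were then dosed with test compound or vehicle alone. Survival was recorded for each group, and the treated figure was expressed relative to the control figure.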

[1] = dose: 100.0 mg/kg/injection, schedule: Q01DX009 (ip), vehicle: saline with Tween-80
[2] = dose: 100.0 mg/kg/injection, schedule: Q04DX003 (ip), vehicle: saline with Tween-80
[3] = dose: 200.0 mg/kg/injection, schedule: Q01DX009 (ip), vehicle: saline with Tween-80
[4] = dose: 200.0 mg/kg/injection, schedule: Q04DX003 (ip), vehicle: saline with Tween-80
[5] = dose: 400.0 mg/kg/injection, schedule: Q01DX009 (ip), vehicle: saline with Tween-80
[6] = dose: 400.0 mg/kg/injection, schedule: Q04DX003 (ip), vehicle: saline with Tween-80
[7] = dose: 100.0 mg/kg/injection, schedule: Q04DX003 (ip), vehicle: saline
[8] = dose: 200.0 mg/kg/injection, schedule: Q04DX003 (ip), vehicle: saline
[9] = dose: 400.0 mg/kg/injection, schedule: Q04DX003 (ip), vehicle: saline
[10] = dose: 50.0 mg/kg/injection, schedule: Q01DX009 (ip), vehicle: saline with Tween-80
[11] = dose: 100.0 mg/kg/injection, schedule: Q04DX002 (ip), vehicle: saline with Tween-80
[12] = dose: 200.0 mg/kg/injection, schedule: Q04DX002 (ip), vehicle: saline with Tween-80
[13] = dose: 400.0 mg/kg/injection, schedule: Q04DX002 (ip), vehicle: saline with Tween-80
[14] = dose: 100.0 mg/kg/injection, schedule: Q01DX009 (ip), vehicle: Klucel (hydroxypropylcellulose) (HPC)
[15] = dose: 200.0 mg/kg/injection, schedule: Q01DX009 (ip), vehicle: Klucel (hydroxypropylcellulose) (HPC)
[16] = dose: 400.0 mg/kg/injection, schedule: Q01DX009 (ip), vehicle: Klucel (hydroxypropylcellulose) (HPC)
[17] = dose: 100.0 mg/kg/injection, schedule: Q01DX001 (ip), vehicle: saline
[18] = dose: 200.0 mg/kg/injection, schedule: Q01DX001 (ip), vehicle: saline
[19] = dose: 400.0 mg/kg/injection, schedule: Q01DX001 (ip), vehicle: saline
[20] = dose: 100.0 mg/kg/injection, schedule: Q04DX003 (ip), vehicle: Klucel (hydroxypropylcellulose) (HPC)
[21] = dose: 50.0 mg/kg/injection, schedule: Q01DX009 (ip), vehicle: Klucel (hydroxypropylcellulose) (HPC)
[22] = dose: 100.0 mg/kg/injection, schedule: Q01DX009 (ip), vehicle: saline
[23] = dose: 200.0 mg/kg/injection, schedule: Q01DX009 (ip), vehicle: saline
[24] = dose: 400.0 mg/kg/injection, schedule: Q01DX009 (ip), vehicle: saline

Measured: T/C

COc1ccccc1OC(=S)N(C)C
inactive: [1] 102 % of control | [2] 103 % of control | [3] 100 % of control | [4] 122 % of control | [5] 93 % of control | [6] 105 % of control

CC12C(=O)C(C(c3ccccc3)=C1c1ccccc1)C1C(=O)OC(=O)C12 (stereo not given)
inactive: dose: 75.0 mg/kg/injection, schedule: Q01DX001 (ip), vehicle: saline 95 % of control | dose: 150.0 mg/kg/injection, schedule: Q01DX001 (ip), vehicle: saline 86 % of control | dose: 300.0 mg/kg/injection, schedule: Q01DX001 (ip), vehicle: saline 95 % of control

O=C(O)C1C2C3CC(C4CC43)C12 (stereo not given)
inactive: [1] 96 % of control | [7] 96 % of control | [3] 106 % of control | [8] 93 % of control | [5] 96 % of control | [9] 100 % of control

CCOC(=O)C1(C(=O)OCC)CCC(C(=O)OCC)(C(=O)OCC)CC1
inactive: dose: 100.0 mg/kg/injection, schedule: Q04DX002 (ip), vehicle: Klucel (hydroxypropylcellulose) (HPC) 101 % of control | dose: 200.0 mg/kg/injection, schedule: Q04DX002 (ip), vehicle: Klucel (hydroxypropylcellulose) (HPC) 101 % of control | dose: 400.0 mg/kg/injection, schedule: Q04DX002 (ip), vehicle: Klucel (hydroxypropylcellulose) (HPC) 101 % of control

CSc1ccc(NC(=O)Oc2ccc3c(C)cc(=O)oc3c2)cc1
inactive: dose: 25.0 mg/kg/injection, schedule: Q01DX009 (ip), vehicle: saline with Tween-80 93 % of control and 100 % of control | [10] 95 % of control and 89 % of control | dose: 100.0 mg/kg/injection, schedule: Q01DX001 (ip), vehicle: saline with Tween-80 94 % of control | [11] 98 % of control and 91 % of control | [2] 87 % of control | dose: 200.0 mg/kg/injection, schedule: Q01DX001 (ip), vehicle: saline with Tween-80 94 % of control | [12] 94 % of control and 91 % of control | [4] 86 % of control | dose: 400.0 mg/kg/injection, schedule: Q01DX001 (ip), vehicle: saline with Tween-80 96 % of control | [13] 96 % of control and 98 % of control | [6] 95 % of control

Cc1ccc(C(=O)CCCCCC(=O)c2ccc(C)cc2O)c(O)c1
inactive: dose: 100.0 mg/kg/injection, schedule: Q01DX001 (ip), vehicle: Klucel (hydroxypropylcellulose) (HPC) 98 % of control | dose: 200.0 mg/kg/injection, schedule: Q01DX001 (ip), vehicle: Klucel (hydroxypropylcellulose) (HPC) 98 % of control | dose: 400.0 mg/kg/injection, schedule: Q01DX001 (ip), vehicle: Klucel (hydroxypropylcellulose) (HPC) 95 % of control

CC(C)N(CCC#N)C(=S)Nc1cccc2ccccc12
inactive: [14] 93 % of control | [15] 87 % of control | [16] 102 % of control

CCCCNc1nc(N)nc(Nc2ccc(Br)cc2)c1N=O
inactive: dose: 100.0 mg/kg/injection, schedule: Q01DX001 (ip), vehicle: acetone 103 % of control | dose: 100.0 mg/kg/injection, schedule: Q04DX003 (ip), vehicle: acetone 93 % of control | dose: 200.0 mg/kg/injection, schedule: Q01DX001 (ip), vehicle: acetone 100 % of control | dose: 200.0 mg/kg/injection, schedule: Q04DX003 (ip), vehicle: acetone 94 % of control | dose: 400.0 mg/kg/injection, schedule: Q01DX001 (ip), vehicle: acetone 106 % of control | dose: 400.0 mg/kg/injection, schedule: Q04DX003 (ip), vehicle: acetone 100 % of control

O=c1cc(Cc2ccc([N+](=O)[O-])cc2)[nH]c(=O)[nH]1
inactive: dose: 50.0 mg/kg/injection, schedule: Q01DX001 (ip), vehicle: saline 101 % of control | [17] 107 % of control | [18] 115 % of control | [19] 115 % of control

CC1CN(C=O)CCN1C=O (stereo not given)
inactive: [17] 98 % of control | [18] 98 % of control | [19] 101 % of control

CC(=O)c1ccc(OC(=O)Nc2cc([N+](=O)[O-])ccc2F)cc1
inactive: [20] 98 % of control | dose: 200.0 mg/kg/injection, schedule: Q04DX003 (ip), vehicle: Klucel (hydroxypropylcellulose) (HPC) 101 % of control | dose: 400.0 mg/kg/injection, schedule: Q04DX003 (ip), vehicle: Klucel (hydroxypropylcellulose) (HPC) 95 % of control

O=C(O)Cc1ccc2[nH]c3c(c2c1)CCCC3
inactive: [21] 105 % of control | dose: 100.0 mg/kg/injection, schedule: Q01DX001 (ip), vehicle: steriod suspending solution 95 % of control | [14] 103 % of control | dose: 200.0 mg/kg/injection, schedule: Q01DX001 (ip), vehicle: steriod suspending solution 92 % of control | [15] 97 % of control

Nc1nc(N)c(-c2ccc(Cl)cc2)c(C(F)(F)F)n1
inactive: dose: 75.0 mg/kg/injection, schedule: Q01DX001 (ip), vehicle: saline with Tween-80 95 % of control | dose: 150.0 mg/kg/injection, schedule: Q01DX001 (ip), vehicle: saline with Tween-80 100 % of control | dose: 300.0 mg/kg/injection, schedule: Q01DX001 (ip), vehicle: saline with Tween-80 92 % of control

O=C1OC(c2ccc([N+](=O)[O-])cc2)=N/C1=C\C=C\c1ccccc1
inactive: [14] 98 % of control | [15] 96 % of control | [16] 103 % of control

NC(=O)C[n+]1ccccc1
inactive: [17] 106 % of control | [18] 98 % of control | [19] 97 % of control

CCOC(=O)C(Br)C(Br)c1ccccc1 (stereo not given)
inactive: [7] 103 % of control | [8] 108 % of control | [9] 98 % of control

CCNC(=O)CCC(N)C(=O)O (stereo not given)
inactive: [22] 97 % of control | [7] 97 % of control | [23] 97 % of control | [8] 101 % of control | [24] 95 % of control | [9] 101 % of control

c1ccc2c(CN3CCCCC3)c[nH]c2c1
inactive: [10] 108 % of control | [1] 88 % of control | [2] 93 % of control | [4] 88 % of control

N=C(N)SCCN1C(=O)c2ccccc2C1=O
inactive: [2] 103 % of control

O=C(NC1(C(=O)O)CCCC1)C(F)(F)F
inactive: [7] 98 % of control | [8] 118 % of control | [9] 111 % of control

BrCc1ccc(CBr)c(Br)c1
inactive: dose: 25.0 mg/kg/injection, schedule: Q01DX009 (ip), vehicle: Klucel (hydroxypropylcellulose) (HPC) 108 % of control | [21] 98 % of control | dose: 50.0 mg/kg/injection, schedule: Q04DX003 (ip), vehicle: Klucel (hydroxypropylcellulose) (HPC) 104 % of control | [20] 95 % of control

CC(C)C(N)C(=O)NO (stereo not given)
inactive: dose: 50.0 mg/kg/injection, schedule: Q01DX009 (ip), vehicle: saline 95 % of control | [22] 100 % of control | [23] 107 % of control | [24] 110 % of control

O=[N+]([O-])c1ccc(N=Nc2ccccc2)cc1
inactive: [1] 109 % of control | [3] 104 % of control | [5] 105 % of control

S=P(c1ccccc1)(c1ccccc1)C(P(c1ccccc1)c1ccccc1)P(c1ccccc1)c1ccccc1
inactive: [11] 97 % of control | [12] 100 % of control | [13] 97 % of control

Cc1cccc(C)c1NC(=O)N(Cc1ccccc1)Cc1ccccc1
inactive: [14] 98 % of control | [15] 112 % of control | [16] 110 % of control

C/C=C/CCCCCCCC(=O)OCCCC
inactive: [1] 101 % of control | [2] 103 % of control | [3] 107 % of control | [4] 97 % of control | [5] 95 % of control | [6] 98 % of control
